Read-outs that look alike come from different tables or passages of the source.
Assays:
[1] = GI S9 stability - no PMSF; format: in vitro ADME; settings: pH 7.4; human intestinal S9, PMSF-free; read-out: GIS9-HUMAN-NoPMSF T1/2
Method in brief: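 Compounds were incubated at 2 μM with PMSF-free intestinal S9 (1 mg/mL protein) in 100 mM PBS, pH 7.4, sampling at 6 time points over 120 min. Parent disappearance and formation of the nucleoside metabolite Reference Compound A were quantified by LC-MS (Q-Exactive) using analyte/internal standard peak area ratios.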

GI S9 stability = format: in vitro ADME
Experimental: Example G: GI S9 Stability
Duplicate aliquots of test compound or positive control substrate (GS-7340) were added to S9 stock diluted with 100 mM phosphate buffered saline, pH 7.4, to obtain a protein concentration of 1.0 mg/mL. The S9 metabolic reactions were initiated by the addition of the substrates to the S9 reaction mixture to a final concentration of 2 μM. At 0, 10, 20, 30, 60 and 120 min, […] aliquots of the reaction mixture were transferred to plates containing […] of IS/Q solution. After quenching, the plates were centrifuged at 3000 g for 30 minutes, and 150 μL aliquots of each supernatant were diluted with 150 μL water. Aliquots ([…]) of the diluted supernatant were analyzed on a Thermo Q-Exactive mass spectrometer as described below. GI S9 Stability—No phenylmethylsulfonyl fluoride (PMSF): Similar to the procedure described above, test compounds were incubated at 2 μM with 1 mg/mL PMSF-free Intestinal S9 fractions. Samples are removed at 6 time points over the course of a 120 min experiment and the parent compound disappreance and reference compound A formation is determined by mass spectrometry.
Example K: Liquid Chromatography/Mass Spectroscopy Methods for S9 and Plasma Stability
Quantification of test compounds, Reference Compound A (S9 stability assay nucleoside metabolite), and controls was performed by analyte/internal standard peak area ratio (PAR) values measured on a Thermo Q-Exactive mass spectrometer coupled to a Dionex UltiMate 3000 HPLC with a Leap Technologies HTC PAL autosampler. The column used for analysis of test compounds and Reference Compound A was a Waters Acquity BEH C18 ([…] particle size, 2.1′50 mm). The column used for control (GS-7340) was a Thermo Hypersil GOLD ([…] particle size, 2.1′50 mm). Mobile phase A consisted of 0.1% (v/v) formic acid in water. Mobile phase B consisted of 0.1% (v/v) formic acid in acetonitrile. Elution of analytes was achieved by a series of linear gradients of acetonitrile in water containing 0.1°(v/v) formic acid. The mass spectrometer was calibrated on a weekly basis and mass tolerance of 5 ppm was used.

[2] = test system: Caco-2 cells (clone C2BBe1); test: CACO-2 permeability; format: in vitro ADME; design: unit not given here; settings: for DM Caco2 A to B: apical to basolateral, donor pH 6.5, receiver pH 7.4; for DM Caco2 B to A: basolateral to apical
Method in brief: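 Caco-2 monolayers grown 21 days on collagen-coated transwells and checked for integrity by TEER. Donor buffer was HBSS/HEPES/glucose pH 6.5 with 200 μM BNPP; receiver was pH 7.4 with BSA. Compounds were dosed apically or basolaterally for A-to-B and B-to-A transport, with receiver sampling at 1 and 2 h, LC-MS/MS analysis and percent recovery.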

[3] = CC50 MT4 cytotoxicity (Cell-Titer Glo); format: cell-based; settings: human
Method in brief: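 Uninfected MT-4 and HEp-2 cells cultured 4-5 days at 37° C with 3-fold serially diluted compound (15 nM to 100,000 nM). Viability read by Cell-Titer Glo luminescence; untreated and 2 μM puromycin wells set 100% and 0%. CC50 from non-linear regression as concentration reducing viability by 50%.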

Plasma stability = format: in vitro ADME; design: unit not given here; settings: 37° C., 2 μM substrate
Method in brief: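 Reaction mixture was sampled at 0.05, 0.5, 1, 2, 3 and 4 hr into quench solution containing internal standard, then centrifuged and diluted with water. Remaining analyte was measured by LC-MS on a Q-Exactive using a formic acid/acetonitrile gradient, with 5 ppm mass tolerance.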

[4] = test system: Respiratory syncytial virus recombinant with luciferase (RSV-Luc5) in Normal Human Bronchial Epithelial (NHBE) cells; test: microbe, parasite or virus in culture; format: cell-based
[5] = test system: Respiratory syncytial virus recombinant with luciferase (RSV-Luc5) in HEp-2 cells; test: microbe, parasite or virus in culture; format: cell-based; settings: human respiratory syncytial virus
[6] = test system: SARS Coronavirus 2 recombinant with NanoLuc (SARS-CoV2-NLuc) in A549-hACE2 cells; test: organism not typed; format: cell-based
[7] = HEp-2, 72 h, read-out: RSV Hep2 EC50

SMILES | half-life at 2 µM [1] [min] | half-life at 2 µM (GI S9 stability; human, s9, pH 7.4) [min] | DM Caco2 A to B [2] | DM Caco2 B to A [2] | CC50 [3] [µM] | STA Human Plasma 37 (Plasma stability) | EC50 ([4]; 72 h, read-out: RSV NHBE EC50) [µM] | EC50 [5, 7] [µM] | EC50 ([6]; 48 h, read-out: SARS-CoV2 EC50) [µM] | half-life at 2 µM (GI S9 stability; pH 7.4, human intestinal S9, read-out: GIS9 Human T1/2) [min] | CC50 ([3]; uninfected MT-4 cells, 4-5 days, read-out: MT4 CC50) [µM] | logD (physchem) | EC50 ([4]; read-out: EC50 RSVFluc-NHBE 384 V2) [µM] | EC50 ([5]; HEp-2, read-out: EC50 RSVFluc-Hep2 384 V2) [µM] | EC50 ([6]; A549, read-out: EC50 SARS CoV2 NanoLuc A549 384) [µM]
CC(C)COC(=O)OC[C@H]1O[C@@](C#N)(c2ccc3c(N)ncnn23)[C@H](O)[C@@H]1O [Compound 1, ((2R,3S,4R,5R)-S-(4-aminopyrrolo[2,1-f][1,2,4]triazin-7-yl)-5-cyano-3,4-dihydroxytetrahydrofuran-2-yl)methyl isobutyl carbonate] | 1.45 | 113 | 0.275 | 3.853 | > 46.4 | 28.434 | 2.18 | 0.422 | 1.87 | – | – | – | – | – | –
CC(C)COC(=O)Nc1ncnn2c([C@]3(C#N)O[C@H](COC(=O)OCC(C)C)[C@@H](O)[C@H]3O)ccc12 [Compound 2, isobutyl (7-((2R,3R,4S,5R)-2-cyano-3,4-dihydroxy-5-(((isobutoxycarbonyl)oxy)methyl)tetrahydrofuran-2-yl)pyrrolo[2,1-f][1,2,4]triazin-4-yl)carbamate] | – | 157 | 1.17 | 8.69 | > 50 | 344.3 | 9.6 | 6.61 | > 50 | – | – | – | – | – | –
CC(C)(C)COC(=O)OC[C@H]1O[C@@](C#N)(c2ccc3c(N)ncnn23)[C@H](O)[C@@H]1O [Compound 3, ((2R,3S,4R,5R)-5-(4-aminopyrrolo[2,1-f][1,2,4]triazin-7-yl)-5-cyano-3,4-dihydroxytetrahydrofuran-2-yl)methyl neopentyl carbonate] | 0.8 | 81 | 1.23 | 9.8 | > 50 | 82.745 | 1.6 | 0.545 | 0.796 | – | – | – | – | – | –
COC(=O)OC[C@H]1O[C@@](C#N)(c2ccc3c(N)ncnn23)[C@H](O)[C@@H]1O [Compound 5, ((2R,3S,4R,5R)-5-(4-aminopyrrolo[2,1-f][1,2,4]triazine-7-yl)-5-cyano-3,4-dihydroxytetrahydrofuran-2-yl)methyl methyl carbonate] | 74.8 | ≥ 789 | – | – | > 50 | 1388.9 | 3.55 | 2.9 | 13.2 | – | – | – | – | – | –
N#C[C@@]1(c2ccc3c(N)ncnn23)O[C@H](COC(=O)Oc2ccccc2)[C@@H](O)[C@H]1O [Compound 7, ((2R,3S,4R,5R)-5-(4-aminopyrrolo[2,1-f][1,2,4]triazin-7-yl)-5-cyano-3,4-dihydroxytetrahydrofuran-2-yl)methyl phenyl carbonate] | – | 54 | 0.52 | 8.98 | 47.4 | 6.563 | 1.34 | 0.416 | 0.915 | – | – | – | – | – | –
CCCOC(=O)OC[C@H]1O[C@@](C#N)(c2ccc3c(N)ncnn23)[C@H](O)[C@@H]1O [Compound 8, ((2R,3S,4R,5R)-5-(4-aminopyrrolo[2,1-f][1,2,4]triazin-7-yl)-5-cyano-3,4-dihydroxytetrahydrofuran-2-yl)methyl propyl carbonate] | 0.58 | – | – | – | – | 11.698 | 1.84 | 0.301 | 1.01 | 159 | > 50 | – | – | – | –
N#C[C@@]1(c2ccc3c(N)ncnn23)O[C@H](COC(=O)OC2CC2)[C@@H](O)[C@H]1O [Compound 9, ((2R,3S,4R,5R)-5-(4-aminopyrrolo[2,1-f][1,2,4]triazin-7-yl)-5-cyano-3,4-dihydroxytetrahydrofuran-2-yl)methyl cyclopropyl carbonate] | – | 311 | 0.39 | 5.17 | > 50 | 156.68 | 1.81 | 0.784 | 2.28 | – | – | – | – | – | –
COCCOC(=O)OC[C@H]1O[C@@](C#N)(c2ccc3c(N)ncnn23)[C@H](O)[C@@H]1O [Compound 10, ((2R,3S,4R,5R)-5-(4-aminopyrrolo[2,1-f][1,2,4]triazine-7-yl)-5-cyano-3,4-dihydroxytetrahydrofuran-2-yl)methyl (2-methoxyethyl) carbonate] | – | ≥ 789 | 0.08 | 1.39 | > 50 | 43.569 | 2.99 | 3.97 | 14.1 | – | – | – | – | – | –
N#C[C@@]1(c2ccc3c(N)ncnn23)O[C@H](COC(=O)OC2CCCC2)[C@@H](O)[C@H]1O [Compound 12, ((2R,3S,4R,5R)-5-(4-aminopyrrolo[2,1-f][1,2,4]triazin-7-yl)-5-cyano-3,4-dihydroxytetrahydrofuran-2-yl)methyl cyclopentyl carbonate] | – | 58 | 1.15 | 13.73 | > 50 | 35.623 | 1.58 | 0.659 | 2.35 | – | – | – | – | – | –
CC(C)(C)COC(=O)OC[C@H]1O[C@@](C#N)(c2ccc3c(=N)n(COP(=O)(O)O)cnn23)[C@H](O)[C@@H]1O [Compound 19, ((2R,3S,4R,5R)-5-cyano-3,4-dihydroxy-5-(4-imino-3-((phosphonooxy)methyl)-3,4-dihydropyrrolo[2,1-f][1,2,4]triazin-7-yl)tetrahydrofuran-2-yl)methyl neopentyl carbonate] | – | 27.4 | – | – | > 50 | 1584 | 5.4 | 1.24 | 7.7 | – | – | – | – | – | –
COC(C)(C)COC(=O)OC[C@H]1O[C@@](C#N)(c2ccc3c(N)ncnn23)[C@H](O)[C@@H]1O [Compound 54, ((2R,3S,4R,5R)-5-(4-aminopyrrolo[2,1-f][1,2,4]triazin-7-yl)-5-cyano-3,4-dihydroxytetrahydrofuran-2-yl)methyl (2-methoxy-2-methylpropyl) carbonate] | 4.33 | 692 | 0.25 | 3.8 | > 50 | 108 | 1.02 | 0.587 | 5.69 | – | – | – | – | – | –
COc1ccc(OC(=O)OC[C@H]2O[C@@](C#N)(c3ccc4c(N)ncnn34)[C@H](O)[C@@H]2O)cc1 [Compound 111, ((2R,3S,4R,5R)-5-(4-aminopyrrolo[2,1-f][1,2,4]triazin-7-yl)-5-cyano-3,4-dihydroxytetrahydrofuran-2-yl)methyl (4-methoxyphenyl) carbonate] | 3.93 | 53.1 | 0.625 | 11.22 | > 50 | 35 | – | – | – | – | – | 1.5 | 1.3 | 0.22 | 3.42

— patent US12448383B2, “Compounds and methods for treatment of viral infections” (priority 2022, dated 2025)
